“Also recorded” adds a separate entry of the source. Read-outs that look alike come from different tables or passages of the source. Values belong to the compound of their own block, whether it stands above or below them.
Columns and labels:
IP receptor = conditions: cited from earlier work
EP2 receptor [1] = biological target: T1, EP2 receptor (Homo sapiens, UniProt P35408); assay: [3H]PGE2 binding (competition) assay, membranes of COS-M6 cells transfected with EP2; parameters: full-length human EP2 cDNA was isolated; This 1.958 kb cDNA clone encodes a 488-amino acid protein; expressed in transfected cells; host or cells: COS-M6 cells (pcDNAIamp plasmid, DEAE-dextran), 100,000 x g membrane fraction; conditions: for rank order of potency for prostaglandins and related analogs / activity at EP2 in words: competition with [3H]PGE2
Method: The cells were maintained in culture for 72 h, then harvested and membranes prepared by differential centrifugation (1000×g for 10 min, then 100,000×g for 30 min) following lysis of the cells by nitrogen cavitation. […] Incubations were conducted for 45 min at 30° C. prior to separation of the bound and free radioligand by rapid filtration through Whatman GF/B filters presoaked at 4° C. in washing buffer ([…] MES/KOH (pH 6.0) containing 0.01% bovine serum albumin).

[2] = system: control oocytes (CFTR alone or CFTR plus antisense EP2 cDNA injected); assay: CFTR-mediated Cl- current in control oocytes (CFTR alone or CFTR plus antisense EP2 cDNA injected); type: cell-based, Xenopus laevis
EP2 receptor [3] = biological target: T1, EP2 receptor; assay: PGE2-induced CFTR-mediated Cl- current in Xenopus oocytes injected with EP2 plus CFTR cDNA; type: cell-based
Method: Oocytes were taken from adult females of Xenopus laevis using standard surgical procedure (Colman, A., 1984 In: Transcription and Translation--A Practical Approach, IRL Press). To remove follicle cells, oocytes were treated for 2-3 h with freshly made collagenase (2 mg/ml, type 2, Worthington Biochemical Corp., Freehold, N.J.) in Ca^2+ -free ND96 solution (ND96 in mM: NaCl 96, KCl 2, MgCl2 1, HEPES 5, Na-pyruvate 2.5, theophylline 0.5 gentamicin […], +1.8 CaCl2, pH 7.6). Defolliculated stage 5-6 oocytes were selected and maintained in ND96 solution. Oocyte nuclei were injected with 1.6 ng of pcDNAIamp-EP2 plus 2.5 ng of pcDNAIamp-CFTR and then incubated at 18° C. for 48 h before challenge with agonist. CFTR (cystic fibrosis transmembrane regulator, a cAMP dependent Cl^- channel) was co-expressed with EP2 receptor in these oocytes and served as a reporter of changes in intracellular cAMP levels. Functional activity was determined by measurement of PGE2-induced CFTR-mediated Cl^- current. An oocyte was placed in a 0.5 ml perfusion chamber and voltage clamped at -60 mV (with microelectrodes of 0.5-2.0 MW resistance filled with 3M KCl) using a Turbo TEC01C amplifier (NP1 Instruments, Germany). Ligand-containing solution was perfused and the current response was recorded.

TP receptor = conditions: cited from earlier work
EP2 receptor [4] = conditions: cited from earlier work
EP2 receptor [5] = conditions: cited from earlier work; remark: listed apart in the source
EP3 receptor = conditions: cited from earlier work
EP1 receptor = conditions: cited from earlier work
[6] = CFTR alone or CFTR plus antisense EP2 cDNA injected

T1 sequence (P35408 whole entry): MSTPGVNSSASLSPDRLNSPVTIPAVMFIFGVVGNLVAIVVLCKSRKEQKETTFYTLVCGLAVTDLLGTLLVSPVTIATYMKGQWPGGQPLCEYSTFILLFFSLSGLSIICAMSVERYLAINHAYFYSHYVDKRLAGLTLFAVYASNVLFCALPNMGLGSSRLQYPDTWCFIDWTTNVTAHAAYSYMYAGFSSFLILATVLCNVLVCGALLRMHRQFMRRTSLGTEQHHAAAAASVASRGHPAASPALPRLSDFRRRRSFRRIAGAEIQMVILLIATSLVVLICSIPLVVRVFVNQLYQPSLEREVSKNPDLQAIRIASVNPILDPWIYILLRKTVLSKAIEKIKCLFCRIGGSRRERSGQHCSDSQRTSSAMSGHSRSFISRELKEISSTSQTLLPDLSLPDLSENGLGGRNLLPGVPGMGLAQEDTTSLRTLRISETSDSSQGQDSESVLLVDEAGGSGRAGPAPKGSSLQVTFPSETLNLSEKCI

Compound: CC#CCC(C)[C@H](O)/C=C/[C@@H]1[C@H]2C/C(=C/CCCC(=O)O)C[C@H]2C[C@H]1O (stereo partly drawn) [iloprost]
potency at the IP receptor, stable prostacyclin analog (IP receptor): comparable potency
rank order of potency for prostaglandins and related analogs (EP2 receptor [1]): PGE2=PGE1>>phenyl-trinor PGE2>iloprost>PGF2α >PGD2≈U46619

Compound: CC(C)Oc1ccc2c(=O)c3cc(C(=O)O)ccc3oc2c1 [AH6809]
activity at EP2 in words (EP2 receptor [1]): essentially inactive

Compound: O=C(O)CCCCCC[C@H]1C(=O)CC[C@@H]1/C=C/[C@@H](O)COc1ccccc1 [MB28767]
potency at EP2 relative to EP3 (fold less potent at EP2 than EP3) (EP2 receptor [1]; EP2 versus EP3): approximately 30 fold

Compound: CC(C)Cn1c(=O)n(C)c(=O)c2[nH]cnc21 [IBMX]
CFTR-mediated Cl- current ([2]; CFTR + anti-sense hEP2 cDNA injected oocytes): IBMX-induced, CFTR-mediated Cl^- current

Compound: CCCCC[C@H](O)/C=C/[C@H]1C(=O)C[C@H](O)[C@@H]1C/C=C\CCCC(=O)O [PGD2]
rank order of potency for prostaglandins and related analogs (EP2 receptor [1]): PGE2=PGE1>>phenyl-trinor PGE2>iloprost>PGF2α >PGD2≈U46619

Compound: CCCCC[C@H](O)/C=C/[C@@H]1[C@@H](C/C=C\CCCC(=O)O)[C@H]2CO[C@@H]1C2 [U46619]
potency at the TP receptor, stable thromboxane analog (TP receptor): comparable potency
rank order of potency for prostaglandins and related analogs (EP2 receptor [1]): PGE2=PGE1>>phenyl-trinor PGE2>iloprost>PGF2α >PGD2≈U46619

Compound: CCCCC[C@H](O)/C=C/[C@H]1[C@H](O)CC(=O)[C@@H]1C/C=C\CCCC(=O)O [PGE2, prostaglandin E2]
affinity (EP2 receptor [4]): high affinity
response of control oocytes ([2]; 1 μM, CFTR + anti-sense hEP2 cDNA): lack of response
response of control oocytes ([2]; 3 μM, CFTR + anti-sense hEP2 cDNA): lack of response
response of control oocytes [2, 6]: absent
intracellular cAMP levels (EP2 receptor [5]): increase in intracellular cAMP levels
affinity (EP3 receptor): high affinity
rank order of potency for prostaglandins and related analogs (EP2 receptor [1]): PGE2=PGE1>>phenyl-trinor PGE2>iloprost>PGF2α >PGD2≈U46619
affinity (EP1 receptor): high affinity
current response (EP2 receptor [3]; perfusion of 1 nM, voltage clamp -60 mV, 1.6 ng EP2 plus 2.5 ng CFTR cDNA): inward cAMP-dependent Cl^- current; also recorded: prominent current responses

Compound: O=C(O)CCCC=CCC1C(=O)CC(O)C1C=CC(O)CCc1ccccc1 (stereo not drawn) [phenyl-trinor PGE2, 17-pheyyl-trinor PGE2]
rank order of potency for prostaglandins and related analogs (EP2 receptor [1]): PGE2=PGE1>>phenyl-trinor PGE2>iloprost>PGF2α >PGD2≈U46619

More lines, main results first:

IC50 (EP2 receptor [1]; read-out: IC50): 6.03 µM
Compound: CCCCC(C)(O)C/C=C/[C@H]1[C@H](O)CC(=O)[C@@H]1CCCCCCC(=O)OC (mixture of isomers) [Misoprostol]

IC50 (EP2 receptor [1]; read-out: IC50 values in competition assays): 0.001 µM
Compound: CCCCC[C@H](O)/C=C/[C@H]1[C@H](O)CC(=O)[C@@H]1CCCCCCC(=O)O [PGE1]
rank order of potency for prostaglandins and related analogs (EP2 receptor [1]): PGE2=PGE1>>phenyl-trinor PGE2>iloprost>PGF2α >PGD2≈U46619

current response compared with PGE2 (EP2 receptor [3]; 1 μM PGF2α): much smaller
Compound: CCCCC[C@H](O)/C=C/[C@@H]1[C@@H](C/C=C\CCCC(=O)O)[C@@H](O)C[C@H]1O [PGF2α]
response of control oocytes [2, 6]: absent
rank order of potency for prostaglandins and related analogs (EP2 receptor [1]): PGE2=PGE1>>phenyl-trinor PGE2>iloprost>PGF2α >PGD2≈U46619

activity at EP2 in words (EP2 receptor [1]): essentially inactive
Compound: CC(=O)NNC(=O)N1Cc2ccccc2Oc2ccc(Cl)cc21 [SC19220]

activity at EP2 in words (EP2 receptor [1]): relatively inactive
IC50 (EP2 receptor [1]; read-out: IC50): 30 µM
Compound: CCCC1([C@H](O)C/C=C/[C@H]2[C@H](O)CC(=O)[C@@H]2CCCCCCC(=O)OC)CCC1 [butaprost]

Reference: patent US5759789A, “Prostaglandin receptor EP2” (Merck Frosst Canada, Inc., priority 1996, dated 1998)
